Five compounds from PubChem BioAssay AID504646 (Southern Research Specialized Biocontainment Screening …, 2011) can be followed below.

Active and inactive are the calls of the source. How the calls were made is not given here.

The test can be described thus: M. tuberculosis growth inhibition in 7H9, dose response, 7H9 media, purified and synthesized samples, set 3 (AID 504646). The note with it: Mycobacterium tuberculosis growth in 7H9 media; at 25 µM (top of the series).
For the compound `Cc1cc(=O)[nH]c(SCC(=O)Nc2ncc(S(=O)(=O)c3ccc([N+](=O)[O-])cc3)s2)n1`, the growth inhibition is -1.38% (inactive).

As to `COc1ccc(NC(=O)CSc2nc(NS(=O)(=O)c3ccc(C)cc3)cc(=O)[nH]2)cc1`, the growth inhibition was 1.44% (inactive).

`CCOc1ccc(NC(=O)CSc2nc(N)c(-c3ccccc3)c(=O)[nH]2)cc1`: the growth inhibition was 0.19% (inactive).

`Cc1c[nH]c(=S)[nH]c1=O`: the growth inhibition is -6.2% (inactive).

As for `CN(C(=O)CSc1nc2ccccc2c(=O)[nH]1)C1CCCCC1`, the growth inhibition was -6.94% (inactive).
